Results as given in article PMC7449217, “The FDA-Approved Drug Nelfinavir Inhibits Lytic Cell-Free but Not Cell-Associated Nonlytic Transmission of Human Adenovirus” (Antimicrobial Agents and Chemotherapy, 2020).
Where a name gives a salt, the structure may show the parent alone.

Assays:
HSV-1-CMV-GFP = experiment: fluorescence-based plaque-forming assay, A549 cells; format: cell-based, herpes simplex virus 1
Procedure: Per 96-well plate, 15,000 A549 cells, 10,000 HeLa cells, 30,000 HBECs, 30,000 HCE cells, or 30,000 CMT-93 cells were seeded in 100 μl of the respective supplemented medium and allowed to settle for 1 h at room temperature (RT) prior to cell culture incubation at 37°C with 5% CO2 and 95% humidity. The following day, the medium was replaced with 50 μl of the respective virus stock dilution giving rise to 5 to 50 plaques per 96-well plate. Fifty microliters of nelfinavir to obtain a 0.1 to 50 μM final concentration or the DMSO solvent control was also added, both in supplemented medium. For each experiment, a noninfected, treated control was performed. […] Plates were imaged on either an IXM-XL or an IXM-C automated high-throughput fluorescence microscope (Molecular Devices, San Jose, CA, USA) using a 4× objective in wide-field mode. Hoechst staining was recorded in the 4′,6-diamidino-2-phenylindole (DAPI) channel, the fluorescein isothiocyanate (FITC)/GFP channel was acquired for viral GFP, and the tetramethyl rhodamine isothiocyanate (TRITC)/Texas Red channel was acquired for hexon immunofluorescence staining.
The infection phenotype for each well was quantified using Plaque2.0 ([101]). The number of plaques was determined based on the infection signal (viral GFP or hexon immunofluorescence staining). […] The mean TI50 was calculated as the EC50/TC50 ratio of the means. […]

[1] = tested on: HAdV-C2-dE3B-GFP-infected A549 cells; experiment: cellular impedance measurement (xCELLigence) of infected A549 cells, delay of cell death; format: cell-based, human; settings: 100 μM nelfinavir
Procedure: Impedance-based assays were performed using the xCELLigence system (Roche Applied Science and ACEA Biosciences) as described previously ([152], [153]), according to the manufacturer’s instructions ([177]), in a cell culture environment (37°C, 5% CO2, and 95% humidity) in duplicates. The 16-well E plates have a gold-plated sensor array embedded in their glass bottom by which the electrical impedance across each well bottom is measured. The impedance per well, termed the cell index (CI), is recorded as a dimensionless quantity. The background CI was assessed following the addition of 50 μl supplemented medium to each well and equilibration in the incubation environment. After 30 min of equilibration, 9,000 A549 cells in 50 μl supplemented medium were added per well, and measurement was started.
For the quantification of nelfinavir effects on the cytopathogenicity of HAdV-C2-dE3B-GFP compared to HAdV-C2-dE3B-GFP-dADP infection, 50 μl of the supernatant was removed 18 h later and replaced with nelfinavir- and virus-supplemented medium. […] The delay of infection-induced cytotoxicity was calculated as the time point at which the CI of the infected cells had decreased by 50% relative to its maximum. […]

HAdV-C2-dE3B-GFP-dADP = experiment: fluorescence-based plaque-forming assay, HBEC; format: cell-based, human adenovirus; settings: for TI50 (TC50/IC50): HAdV-C2-dE3B-GFP-dADP in HBEC, 4 dpi, GFP
Procedure: (§1) Per 96-well plate, 15,000 A549 cells, 10,000 HeLa cells, 30,000 HBECs, 30,000 HCE cells, or 30,000 CMT-93 cells were seeded in 100 μl of the respective supplemented medium and allowed to settle for 1 h at room temperature (RT) prior to cell culture incubation at 37°C with 5% CO2 and 95% humidity. The following day, the medium was replaced with 50 μl of the respective virus stock dilution giving rise to 5 to 50 plaques per 96-well plate. Fifty microliters of nelfinavir to obtain a 0.1 to 50 μM final concentration or the DMSO solvent control was also added, both in supplemented medium. For each experiment, a noninfected, treated control was performed. For uphill plaque assays, the medium volume was increased to 150 μl with identical virus and drug concentrations. For wash-in/washout experiments, the virus was incubated on cells in supplemented medium for 1 h at 37°C, cells were washed with PBS, and a 100-μl drug dilution in supplemented medium was added. All experiments were performed in four technical replicates or as indicated. Cells were incubated under standard cell culture conditions. At the indicated times postinfection, the cells were fixed, and the nuclei were stained for 1 h at RT by the addition of 33 μl 16% (wt/vol) paraformaldehyde (PFA) and 4 μg/ml Hoechst 33342 (Sigma-Aldrich, St. Louis, MO, USA) in PBS. Cells were washed three times with PBS and stored in PBS supplemented with 0.02% N3 for infections with viruses harboring a GFP transgene. For wild-type (wt) viruses, cells were quenched in PBS supplemented with 50 mM NH4Cl, permeabilized using 0.2% (vol/vol) Triton X-100 in PBS, and blocked with 0.5% (wt/vol) bovine serum albumin (BSA) in PBS. Cells were incubated with 381.7 ng/ml mouse anti-HAdV hexon protein antibody (Mab8052; Sigma-Aldrich, St. Louis, MO, USA) and subsequently stained using 2 μg/ml goat anti-mouse-Alexa Fluor 594 (catalog number A21203 or A32742; Thermo Fisher Scientific, Waltham, MA, USA). Plates were imaged on either an IXM-XL or an IXM-C automated high-throughput fluorescence microscope (Molecular Devices, San Jose, CA, USA) using a 4× objective in wide-field mode. Hoechst staining was recorded in the 4′,6-diamidino-2-phenylindole (DAPI) channel, the fluorescein isothiocyanate (FITC)/GFP channel was acquired for viral GFP, and the tetramethyl rhodamine isothiocyanate (TRITC)/Texas Red channel was acquired for hexon immunofluorescence staining.
(§2) The infection phenotype for each well was quantified using Plaque2.0 ([101]). The number of plaques was determined based on the infection signal (viral GFP or hexon immunofluorescence staining). Nuclei stained with Hoechst were segmented by using CellProfiler ([178]). Infected nuclei were classified based on the median infection signal per nucleus in CellProfiler. Data were plotted, and the EC50 (infected and treated cells), the TC50 (noninfected, treated cells), as well as the corresponding standard errors (SE) were determined using curve fitting in GraphPad (version 8.1.2; GraphPad Software, Inc.) using three-parameter inhibitor concentration-versus-response nonlinear regression. The mean TI50 was calculated as the […] ratio of the means. The TI50 SE was calculated by error propagation.

HAdV-B3-pIX-FS2A-GFP = experiment: fluorescence-based plaque-forming assay, HBEC; format: cell-based, human adenovirus
Procedure: as §1, §2

HAdV-C2-dE3B-GFP [2] = experiment: fluorescence-based plaque-forming assay, HBEC; format: cell-based, human adenovirus; settings: for TI50 (TC50/IC50): HAdV-C2-dE3B-GFP in HBEC, 4 dpi, GFP
Procedure: as §1, §2

HAdV-B35-pIX-FS2A-GFP = experiment: fluorescence-based plaque-forming assay, HBEC; format: cell-based, human adenovirus
Procedure: as §1, §2

A549 cells = settings: cited from earlier work
HAdV-A31 = experiment: fluorescence-based plaque-forming assay, HCE cells; format: cell-based, human adenovirus; settings: HAdV-A31 in HCE
Procedure: as §1, with “Cells were incubated with 381.7 ng/ml mouse anti-HAdV hexon protein antibody (Mab8052; Sigma-Aldrich, St. Louis, MO, USA) and subsequently stained using 2 μg/ml goat anti-mouse-Alexa Fluor 594 (catalog number A21203 or A32742; Thermo Fisher Scientific, Waltham, MA, USA).” left out
as §2, with “Nuclei stained with Hoechst were segmented by using CellProfiler ([178]). Infected nuclei were classified based on the median infection signal per nucleus in CellProfiler.” left out

HAdV-C2-dE3B-GFP [3] = experiment: fluorescence-based plaque-forming assay, HCE cells; format: cell-based, human adenovirus
Procedure: as §1, with “Cells were incubated with 381.7 ng/ml mouse anti-HAdV hexon protein antibody (Mab8052; Sigma-Aldrich, St. Louis, MO, USA) and subsequently stained using 2 μg/ml goat anti-mouse-Alexa Fluor 594 (catalog number A21203 or A32742; Thermo Fisher Scientific, Waltham, MA, USA).” left out
as §2, with “Nuclei stained with Hoechst were segmented by using CellProfiler ([178]). Infected nuclei were classified based on the median infection signal per nucleus in CellProfiler.” left out

## Cc1c(O)cccc1C(=O)N[C@@H](CSc1ccccc1)[C@H](O)CN1C[C@H]2CCCC[C@H]2C[C@H]1C(=O)NC(C)(C)C [Nelfinavir, Nelfinavir mesylate]
HSV-1-CMV-GFP; HSV-1-CMV-GFP in A549, 1 dpi, GFP
  TI50 (TC50/IC50): 17.25
HSV-1-CMV-GFP; Human alphaherpesvirus 1, A549
  EC50: 2870 nM
[1]
  toxicity in impedance measurement of infected cells: toxic
HAdV-C2-dE3B-GFP-dADP
  TI50 (TC50/IC50): 4.56
HAdV-C2-dE3B-GFP-dADP; listed as nelfinavir
  TI50 (TC50/IC50): 4.6
HAdV-C2-dE3B-GFP-dADP; Human adenovirus sp.
  EC50: 2720 nM
HAdV-B3-pIX-FS2A-GFP; HAdV-B3-pIX-FS2A-GFP in HBEC, 8 dpi, GFP
  TI50 (TC50/IC50): 1.99
HAdV-B3-pIX-FS2A-GFP; Human adenovirus sp.
  EC50: 6410 nM
HAdV-C2-dE3B-GFP [2]
  TI50 (TC50/IC50): 55.18
HAdV-C2-dE3B-GFP [2]; listed as nelfinavir
  TI50 (TC50/IC50): 55.2
HAdV-C2-dE3B-GFP [2]; Human adenovirus sp.
  EC50: 530 nM
HAdV-B35-pIX-FS2A-GFP; HAdV-B35-pIX-FS2A-GFP in HBEC, 6 dpi, GFP
  TI50 (TC50/IC50): 1.91
HAdV-B35-pIX-FS2A-GFP; Human adenovirus sp.
  EC50: 6990 nM
A549 cells
  Toxic: no
HAdV-A31; 8 dpi, Hexon
  TI50 (TC50/IC50): 1.08
HAdV-A31; Human adenovirus sp., fixation 8 dpi, read-out Hexon, plaque numbers
  EC50: 18100 nM
HAdV-C2-dE3B-GFP [3]; HAdV-C2-dE3B-GFP in HCE, 5 dpi, GFP
  TI50 (TC50/IC50): 54.04
HAdV-C2-dE3B-GFP [3]; Human adenovirus sp., HCE
  EC50: 550 nM
